Laboratory results as given in patent publication US10494384B2, “Urea peptoid boric acid compound, pharmaceutical composition thereof, preparation method therefor, and uses thereof” (Peking University, priority 2015, dated 2019).
Like-named read-outs stand apart in the source and are kept apart here.

Columns and labels:
[1] = biological target: T1, 20S proteasome extracted from rat liver (PGPH) (Rattus norvegicus, UniProt P28073+Q9JHW0); test: inhibition of 20S proteasome, PGPH activity (fluorescent peptide); type: biochemical; details: for inhibition at 0.2 µM / inhibition at 2 µM / inhibition at 20 µM: rat liver 20S proteasome, 37° C., 1 h, read-out: inhibition rates (%) PGPH
T1 construct: 20S proteasome extracted from rat liver; from tissue; host or cells: rat liver
Method: (§1) 1 μg of 20S proteasome extracted from rat liver was incubated with a 100 μL solution containing various concentrations of the present compounds, 50 μM fluorescent peptides and 20 mM Tris-HCl at 37° C. for 1 h, respectively. […] 0.1% DMSO was used as a solvent control. Compared with the fluorescence of solvent control, an inhibition rate or IC50 value was calculated.

[2] = biological target: T2, 20S proteasome extracted from rat liver (T-L) (Rattus norvegicus, UniProt P40112+Q9JHW0); test: inhibition of 20S proteasome, T-L activity (fluorescent peptide); type: biochemical; details: for inhibition at 0.2 µM / inhibition at 2 µM / inhibition at 20 µM: 37° C., 1 h, read-out: inhibition rates (%) T-L
T2 construct: 20S proteasome extracted from rat liver; from tissue; host or cells: rat liver
Method: as §1

[3] = biological target: T3, 20S proteasome extracted from rat liver (CT-L) (Rattus norvegicus, UniProt P18421+P28075); test: inhibition of 20S proteasome, CT-L activity (fluorescent peptide); type: biochemical; details: for inhibition at 0.2 µM / inhibition at 2 µM / inhibition at 20 µM: rat liver 20S proteasome, 37° C., 1 h, read-out: inhibition rates (%) CT-L
T3 construct: 20S proteasome extracted from rat liver; from tissue; host or cells: rat liver
Method: as §1

[4] = tested on: Hela, human cervical carcinoma; test: preliminary anti-tumor screening in vitro, MTT method; type: cell-based; details: read-out: inhibition rates (%) Hela
Method: (§2) The test methods used in this test example are routine methods for anti-tumor activities test in pharmaceutical area, for example, referring to the following reference: (J. Immunol Method, 1983, 65, 55).
(§3) Test models: A: MTT method (Hela, human cervical carcinoma); B: SRB method (BGC-823, […]); C: SRB method (MCF-7, breast cancer); D: SRB method (A549, human lung cancer); E: SRB method (PC3M1E8, prostate cancer).
(§4) Inhibition rates of the compounds were measured under concentrations of 0.1 μM, 1 μM or 10 μM.

A549, human lung cancer = test: preliminary anti-tumor screening in vitro, SRB method; type: cell-based; details: read-out: inhibition rates (%) A549
Method: as §2, §3, §4

MCF-7, breast cancer = test: as above; type: cell-based; details: Homo sapiens, read-out: inhibition rates (%) MCF-7; for inhibition at 0.1 µM: MCF7, 0.1 μM; for inhibition at 1 µM: MCF7, 1 μM; for inhibition at 10 µM: MCF7, 10 μM
Method: as §2, §3, §4

BGC-823, liver cancer = test: as above; type: cell-based; details: Homo sapiens, read-out: inhibition rates (%) BGC-823
Method: as §2, §3, §4

inhibition at 0.2 µM [1] [%]	inhibition at 2 µM [1] [%]	inhibition at 20 µM [1] [%]	inhibition at 0.2 µM ([2]; rat liver 20S proteasome) [%]	inhibition at 2 µM ([2]; rat liver 20S proteasome) [%]	inhibition at 20 µM ([2]; rat liver 20S proteasome) [%]	Structure (SMILES)	IC50 [1] [nM]	IC50 [3] [nM]	IC50 [2] [µM]	inhibition at 0.1 µM [4] [%]	inhibition at 1 µM [4] [%]	inhibition at 10 µM [4] [%]	inhibition at 0.1 µM (A549, human lung cancer) [%]	inhibition at 1 µM (A549, human lung cancer) [%]	inhibition at 10 µM (A549, human lung cancer) [%]	inhibition at 0.1 µM (MCF-7, breast cancer) [%]	inhibition at 1 µM (MCF-7, breast cancer) [%]	inhibition at 10 µM (MCF-7, breast cancer) [%]	inhibition at 0.1 µM (BGC-823, liver cancer) [%]	inhibition at 1 µM (BGC-823, liver cancer) [%]	also measured
						CC(C)C[C@H](NC(=O)[C@H](Cc1ccccc1)NC(=O)N1CCc2ccccc2C1=O)B(O)O [Example 37, N-(1-oxo-1,2,3,4-dihydroisoquinolin-2-ylformyl)-L-phenylalanyl-L-leucine borate]	1240	660													IC50 ([2]; rat liver 20S proteasome, read-out: IC50 (μM) T-L): > 20 µM
						CC(C)C[C@H](NC(=O)[C@H](Cc1ccccc1)NC(=O)NCCc1ccccc1)B(O)O [Example 25, N-L-phenylalanyl-L-leucine borate-N′-phenylethylamine-urea]	240	20	1.05												
17.4	66.3	93.8	-3.92	2.41	27.2	CC(C)C[C@H](NC(=O)N[C@@H](Cc1ccccc1)C(=O)Nc1cnccn1)B(O)O [Example 6, N-L-leucine borate-N′-(pyrazin-2-ylcarbamoyl)-L-phenylalanine-urea]				1.74	4.43	16.9	-6.94	-3.91	7.01	0.8	1.9	6.05	4.88	4.4	inhibition at 10 µM (BGC-823, liver cancer): 8.98%; inhibition at 0.2 µM [3]: -0.67%; inhibition at 2 µM [3]: 44.7%; inhibition at 20 µM [3]: 86.8%
8.58	62.5	96.9	0.355	29.3	62	CC(C)C[C@H](NC(=O)CNC(=O)Nc1cccc(OCc2ccccc2)c1)B(O)O [Example 21, N-glycyl-L-leucine borate-N′-(3-benzyloxy-phenylamine)-urea]				9.87	12.9	29.9	7.42	25.2	41.4	5.41	9.64	24.2	0.38	2.21	inhibition at 10 µM (BGC-823, liver cancer): 23.1%; inhibition at 0.2 µM [3]: 47.3%; inhibition at 2 µM [3]: 90.9%; inhibition at 20 µM [3]: 95.6%
19	79.8	96	-12.3	-5.93	17.4	CC(C)C[C@H](NC(=O)N[C@H](Cc1ccccc1)C(=O)Nc1cnccn1)B(O)O [Example 10, N-L-leucine borate-N′-(pyrazin-2-ylcarbamoyl)-D-phenylalanine-urea]				11.8	14.8	27	3.45	14.6	25	8.1	12.7	16	4.44	7.38	inhibition at 10 µM (BGC-823, liver cancer): 16.4%; inhibition at 0.2 µM [3]: -4.19%; inhibition at 2 µM [3]: 47.8%; inhibition at 20 µM [3]: 89%
-21.8	-24.7	-24.2	-0.926	43.5	90.2	CC(C)C[C@H](NC(=O)[C@H](Cc1ccccc1)NC(=O)N[C@@H](Cc1ccccc1)C(=O)Nc1cnccn1)B(O)O [Example 24, N-L-phenylalanyl-L-leucine borate-N′-(pyrazin-2-ylcarbamoyl)-L-phenylalanine-urea]				24.7	45.3	48.6	29.5	61.5	70.2	19.7	33.3	45.1	36.3	45.6	inhibition at 10 µM (BGC-823, liver cancer): 51.1%; inhibition at 0.2 µM [3]: 84.6%; inhibition at 2 µM [3]: 95.7%; inhibition at 20 µM [3]: 97.4%
2.03	2.19	62.7	6.92	4.38	36.2	CC(C)C[C@H](NC(=O)N[C@@H](Cc1ccccc1)C(=O)Nc1cccc(OCc2ccccc2)c1)B(O)O [Example 4, N-L-leucine borate-N′-(3-benzyloxy-phenylcarbamoyl)-L-phenylalanine-urea]				9.59	11.3	25.4	6.4	16.2	31.1	6.46	9.07	9.93	6.67	4.64	inhibition at 10 µM (BGC-823, liver cancer): 13.1%; inhibition at 0.2 µM [3]: -14.2%; inhibition at 2 µM [3]: 10.4%; inhibition at 20 µM [3]: 77.7%
						CC(C)C[C@H](NC(=O)[C@H](Cc1ccccc1)NC(=O)NCc1cnccn1)B(O)O [Example 2, N-L-phenylalanyl-L-leucine borate-N′-pyrazin-2-ylmethylamine-urea]	790	50	11.4												
-14.4	-2.93	92.4	-2.89	12.3	62.2	CC(C)C[C@H](NC(=O)[C@H](Cc1ccccc1)NC(=O)Nc1cccc(OCc2ccccc2)c1)B(O)O [Example 16, N-L-phenylalanyl-L-leucine borate-N′-(3-benzyloxy-phenylamine)-urea]				9.91	34.1	39.6	5	36.2	65	6.62	27.2	51.4	6.01	34	inhibition at 10 µM (BGC-823, liver cancer): 48.7%; inhibition at 0.2 µM [3]: -14.6%; inhibition at 2 µM [3]: 86.6%; inhibition at 20 µM [3]: 94.5%
						CC(C)C[C@H](NC(=O)[C@H](Cc1ccccc1)NC(=O)NCc1ccco1)B(O)O [Example 33, N-L-phenylalanyl-L-leucine borate-N′-furan-2-ylmethylamine-urea]	80	20	5.32												
						CC(C)C[C@H](NC(=O)[C@H](Cc1ccccc1)NC(=O)NCc1cccc([N+](=O)[O-])c1)B(O)O [Example 36, N-L-phenylalanyl-L-leucine borate-N′-3-nitro-benzylamine-urea]	140	3	0.19												
						CC(C)C[C@H](NC(=O)[C@H](Cc1ccccc1)NC(=O)NCc1cc(Cl)ccc1Cl)B(O)O [Example 31, N-L-phenylalanyl-L-leucine borate-N′-2,5-dichloro-benzylamine-urea]	480	40	0.53												
						Cc1cccc(CNC(=O)N[C@@H](Cc2ccccc2)C(=O)N[C@@H](CC(C)C)B(O)O)c1C [Example 30, N-L-phenylalanyl-L-leucine borate-N′-2,3-dimethyl-benzylamine-urea]	130	4	0.34												
						CC(C)C[C@H](NC(=O)[C@H](Cc1ccccc1)NC(=O)N(C)Cc1ccccc1)B(O)O [Example 29, N-L-phenylalanyl-L-leucine borate-N′—(N-methyl-benzylamine)-urea]		2	0.19												
